In publication PMC12114952, “Design, Synthesis, Anticancer Evaluation and Molecular Docking of Pyrimidine, Pyrido[4,3-d]pyrimidine and 5,6,7,8-Tetrahydropyrido[3,4-d]pyrimidine Derivatives as Novel KRAS-G12D Inhibitors and PROTACs” (Pharmaceuticals, 2025):
Where two headings read alike, the source gives them in different places.

Experiments:
AGS = settings: Figure 1; cited from earlier work
tumor = system: tumor; design: method as in PMID 38197882; settings: subcutaneous administration once a day for 22 days; cited from earlier work
AsPc-1 [1] = settings: Figure 1, cited from earlier work
HCT116 (G13D) = assay: CCK-8 cell proliferation assay, HCT116 cells; assay type: cell-based; settings: Homo sapiens, HCT-116, KRAS-G13D
From the text: (§1) It has been reported that Panc1 is a KRAS-G12D-mutated human pancreatic cell and that A549 is a KRAS WT cell; meanwhile, HCT116 cells carry the KRAS-G13D mutation. Therefore, we used these cell lines to analyze the compounds’ anticancer activity and selectivity.

A549 (WT) = assay: CCK-8 cell proliferation assay, A549 cells; assay type: cell-based; settings: Homo sapiens, KRAS wild-type
From the text: as §1

Panc1 (G12D) = assay: CCK-8 cell proliferation assay, Panc1 cells; assay type: cell-based, human; settings: for IC50: Homo sapiens, PANC-1, Panc1 cells, KRAS-G12D, CCK-8; for selectivity index (SI): Panc1 (G12D) over wild-type cells, fold
From the text: as §1

KRAS-G12D = KRAS-G12D (Homo sapiens, UniProt P01116, G12D); assay: KRAS-G12D enzyme inhibition assay (GTPase activity assay)
KRAS-G12D, sequence (P01116 1-188 isoform P01116-2 G12D): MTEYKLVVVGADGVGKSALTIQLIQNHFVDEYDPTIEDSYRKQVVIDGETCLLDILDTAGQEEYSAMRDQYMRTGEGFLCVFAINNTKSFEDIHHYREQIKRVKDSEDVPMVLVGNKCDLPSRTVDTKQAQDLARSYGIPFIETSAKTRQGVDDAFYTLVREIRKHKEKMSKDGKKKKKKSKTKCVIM

AGS (G12D) = assay: CCK-8 cell proliferation assay, AGS cells; assay type: cell-based; settings: Homo sapiens, KRAS-G12D, antiproliferative
Experimental: as §1
(§2) After we obtained 26a and 26b, cell proliferation experiments were conducted using cell lines carrying KRAS-G12D mutations, and the results are shown in Table 2. […] In the future, more types of linkers can be designed to adjust the lipophilic–hydrophilic balance coefficient of the molecule to optimize its membrane permeability and protein degradation ability. In addition, it should be acknowledged that only two cancer cell lines were selected for testing in this experiment, which is insufficient to comprehensively evaluate these PROTACs. This is also one of the limitations of this experiment.

ASPC-1 [2] = assay: Cell proliferation assay, ASPC-1 cells; assay type: cell-based; settings: Homo sapiens, ASPC1, KRAS-G12D, antiproliferative
Experimental: as §2

Panc-1 = settings: Figure 1; cited from earlier work
CT26 = system: CT26; design: method as in PMID 35276423; settings: Figure 1; cited from earlier work
Panc 04.03 = settings: Figure 1; cited from earlier work
KC = system: KC; design: method as in PMID 35075146; settings: Figure 1; cited from earlier work
[3] = KRAS-G12D inhibition IC50, enzymatic inhibition

Row | SMILES | IC50 (HCT116 (G13D)) [µM] | IC50 (A549 (WT)) [µM] | IC50 (Panc1 (G12D)) [µM] | also measured
1 | CCc1c(F)ccc2cc(O)cc(-c3ncc4c(N5CC6CCC(C5)N6)nc(OC[C@@H]5CCCN5CCCCOCC(=O)N[C@H](C(=O)N5C[C@H](O)C[C@H]5C(=O)N[C@@H](C)c5ccc(-c6scnc6C)cc5)C(C)(C)C)nc4c3F)c12 [Compound 8o] | – | – | – | IC50 (AGS): 31 nM; tumor inhibition rate (tumor): 68.6%; IC50 (AsPc-1 [1]): 60 nM
2 | CN1CCCN(c2nc3c(c(N4CC(N)C4)n2)CCN(C(=O)c2ccc(F)c4ccccc24)C3)CC1 [Compound 10a, (4-(3-Aminoazetidin-1-yl)-2-(4-methyl-1,4-diazepan-1-yl)-5,8-dihydropyrido[3,4-d]pyrimidin-7(6H)-yl)(4-fluoronaphthalen-1-yl)methanone] | 12.6 ± 1.01 | > 20 | 6.17 ± 0.2 | –
3 | CN1CCCN(c2nc3c(c(N4CCNCC4)n2)CCN(C(=O)c2ccc(F)c4ccccc24)C3)CC1 [Compound 10b, (4-Fluoronaphthalen-1-yl)(2-(4-methyl-1,4-diazepan-1-yl)-4-(piperazin-1-yl)-5,8-dihydropyrido[3,4-d]pyrimidin-7(6H)-yl)methanone] | 11.2 ± 0.94 | 7.89 ± 0.17 | 5.87 ± 0.37 | –
4 | CN1CCCN(c2nc3c(c(N4[C@@H]5CC[C@H]4CNC5)n2)CCN(C(=O)c2ccc(F)c4ccccc24)C3)CC1 [Compound 10c, (4-((1R,5S)-3,8-Diazabicyclo[3.2.1]octan-8-yl)-2-(4-methyl-1,4-diazepan-1-yl)-5,8-dihydropyrido[3,4-d]pyrimidin-7(6H)-yl)(4-fluoronaphthalen-1-yl)methanone] | 5.13 ± 0.4 | 6.88 ± 0.19 | 1.4 ± 0.19 | IC50 (KRAS-G12D; [3]): > 10000 nM; IC50 (AGS (G12D)): 3.4 ± 0.25 µM; selectivity index (SI) (Panc1 (G12D)): 4.9
5 | CN1CCCN(c2nc3c(c(N4CCNCC4CO)n2)CCN(C(=O)c2ccc(F)c4ccccc24)C3)CC1 (centres unmarked) [Compound 10d, (4-Fluoronaphthalen-1-yl)(4-(2-(hydroxymethyl)piperazin-1-yl)-2-(4-methyl-1,4-diazepan-1-yl)-5,8-dihydropyrido[3,4-d]pyrimidin-7(6H)-yl)methanone] | > 20 | 7.48 ± 0.19 | > 20 | –
6 | CN1CCCN(c2nc3c(c(N4CCNCC4(C)C)n2)CCN(C(=O)c2ccc(F)c4ccccc24)C3)CC1 [Compound 10e, (4-(2,2-Dimethylpiperazin-1-yl)-2-(4-methyl-1,4-diazepan-1-yl)-5,8-dihydropyrido[3,4-d]pyrimidin-7(6H)-yl)(4-fluoronaphthalen-1-yl)methanone] | 11.9 ± 1.59 | 12.8 ± 1.84 | > 20 | –
7 | CN1CCCN(c2nc3c(c(N4CCCN(C)CC4)n2)CCN(C(=O)c2ccc(F)c4ccccc24)C3)CC1 [Compound 10f, (2,4-Bis(4-methyl-1,4-diazepan-1-yl)-5,8-dihydropyrido[3,4-d]pyrimidin-7(6H)-yl)(4-fluoronaphthalen-1-yl)methanone] | 10.1 ± 0.31 | > 20 | 3.48 ± 0.22 | selectivity index (SI) (Panc1 (G12D)): 5.7
8 | O=C(c1ccc(F)c2ccccc12)N1CCc2c(nc(N3CCN4CCC3CC4)nc2N2CCN3CCC2CC3)C1 [Compound 10g, (2,4-Di(1,4-diazabicyclo[3.2.2]nonan-4-yl)-5,8-dihydropyrido[3,4-d]pyrimidin-7(6H)-yl)(4-fluoronaphthalen-1-yl)methanone] | 7.12 ± 0.45 | 12.9 ± 0.38 | 5.1 ± 0.32 | –
9 | CN1CCCN(c2nc3c(c(N4CCNCC4CO)n2)CCN(Cc2ccccc2)C3)CC1 (centres unmarked) [Compound 10h, (1-(7-Benzyl-2-(4-methyl-1,4-diazepan-1-yl)-5,6,7,8-tetrahydropyrido [3,4-d]pyrimidin-4-yl)piperazin-2-yl)methanol] | > 20 | > 20 | > 20 | –
10 | Cc1cccc2cccc(N3CCc4c(nc(N5CCCN(C)CC5)nc4N4C[C@H]5CC[C@@H](C4)N5)C3)c12 [Compound 10i, 4-((1R,5S)-3,8-Diazabicyclo[3.2.1]octan-3-yl)-2-(4-methyl-1,4-diazepan-1-yl)-7-(8-methylnaphthalen-1-yl)-5,6,7,8-tetrahydropyrido[3,4-d]pyrimidine] | 4.51 ± 0.21 | 5.5 ± 1.35 | 3.92 ± 0.58 | –
11 | CCN1CCC[C@H]1CNc1nc(NC(=O)c2cccc3ccccc23)cc(N2CCNCC2)n1 [Compound 10j, (S)-N-(2-(((1-Ethylpyrrolidin-2-yl)methyl)amino)-6-(piperazin-1-yl)pyrimidin-4-yl)-1-naphthamide] | 14.5 ± 1.22 | > 20 | 5.96 ± 0.64 | –
12 | C#Cc1c(F)ccc2cc(O)cc(-c3ncc4c(N5C[C@H]6CC[C@@H](C5)N6)nc(N5CCCN(C)CC5)nc4c3F)c12 [Compound 10k, 4-(4-((1R,5S)-3,8-Diazabicyclo[3.2.1]octan-3-yl)-8-fluoro-2-(4-methyl-1,4-diazepan-1-yl)pyrido[4,3-d]pyrimidin-7-yl)-5-ethynyl-6-fluoronaphthalen-2-ol] | 7.87 ± 0.16 | 14.2 ± 2.15 | 11.5 ± 0.41 | IC50 (KRAS-G12D; [3]): 9 nM; IC50 (KRAS-G12D; KRAS-G12D inhibitory activity IC50 (nM), Table S1): 9.3 nM; IC50 (AGS (G12D)): 2.22 ± 0.53 µM
13 | C#Cc1c(F)ccc2cc(O)cc(-c3ncc4c(N5C[C@H]6CC[C@@H](C5)N6)nc(N5CCCN(CCOCCNc6cccc7c6C(=O)N(C6CCC(=O)NC6=O)C7=O)CC5)nc4c3F)c12 (stereo partly drawn) [Compound 26a, 4-((2-(2-(4-(4-((1R,5S)-3,8-Diazabicyclo[3.2.1]octan-3-yl)-7-(8-ethynyl-7-fluoro-3-hydroxynaphthalen-1-yl)-8-fluoropyrido[4,3-d]pyrimidin-2-yl)-1,4-diazepan-1-yl)ethoxy)ethyl)amino)-2-(2,6-dioxopiperidin-3-yl)isoindoline-1,3-dione] | – | – | – | IC50 (AGS (G12D)): ~3 µM; IC50 (ASPC-1 [2]): > 10 µM
14 | C#Cc1c(F)ccc2cc(O)cc(-c3ncc4c(N5C[C@H]6CC[C@@H](C5)N6)nc(N5CCCN(CCCCCC(=O)N[C@H](C(=O)N6C[C@H](O)C[C@H]6C(=O)N[C@@H](C)c6ccc(-c7scnc7C)cc6)C(C)(C)C)CC5)nc4c3F)c12 [Compound 26b, (2S,4R)-1-((S)-2-(6-(4-(4-((1R,5S)-3,8-Diazabicyclo[3.2.1]octan-3-yl)-7-(8-ethynyl-7-fluoro-3-hydroxynaphthalen-1-yl)-8-fluoropyrido[4,3-d]pyrimidin-2-yl)-1,4-diazepan-1-yl)hexanamido)-3,3-dimethylbutanoyl)-4-hydroxy-N-((S)-1-(4-(4-methylthiazol-5-yl)phenyl)ethyl)pyrrolidine-2-carboxamide] | – | – | – | IC50 (ASPC-1 [2]): 5.09 ± 0.89 µM
15 | N#Cc1c(N)sc2c(F)ccc(-c3c(C(F)(F)F)cc4c(N5CC6CCC(C5)N6)nc(OC[C@@]56CCCN5C[C@H](F)C6)nc4c3F)c12 [ERAS-5024] | – | – | – | IC50 (AsPc-1 [1]; 3D, CTG): 4 nM
16 | COc1cccc(C(F)(F)F)c1-c1cc2c(N3CC4CCC(C3)N4)ncnc2s1 [KD-8] | – | – | – | IC50 (Panc-1): 2300 nM; IC50 (CT26): 2000 nM
17 | C#Cc1c(F)ccc2cc(O)cc(-c3ncc4c(N5CC6CCC(C5)N6)nc(OC[C@@]56CCCN5C[C@H](F)C6)nc4c3F)c12 [MRTX1133, reference compound] | 12.6 ± 0.47 | 12.7 ± 0.98 | 0.39 ± 0.05 | IC50 (AGS (G12D)): 1.46 ± 0.18 µM; IC50 (Panc 04.03): 10 nM; IC50 (AGS): 6 nM; tumor inhibition rate (tumor): 89.1%; IC50 (ASPC-1 [2]): < 0.1 µM
18 | Cc1cccc2cccc(N3CCc4c(nc(OC[C@@H]5CCCN5C)nc4N4CC5CCC(C4)N5)C3)c12 [TH-Z835] | – | – | – | IC50 (KC): < 500 nM; IC50 (Panc-1): < 2000 nM
